Laboratory results as given in patent US20260265199A1, “CRYSTALLINE FORMS OF (R)-2-AMINO-5-(4-(2-(3,5-DIFLUOROPHENYL)-2-HYDROXYACETAMIDO)-2-METHYLPHENYL)-N-ISOPROPYLNICOTINAMIDE AND METHODS FOR USING THE SAME” (HIBERCELL, INC., priority 2023, published 2026).
Structures can show the parent of a compound that is named as a salt. Where two headings read alike, the source gives them in different places.

Assay: Phase 1a study: pharmacokinetics after oral BID dosing in subjects with advanced solid tumors
Type: in vivo, human
Design: Increase in mean: scale not given here
Details: for Increase in mean: 600 mg vs preceding dose level (400 mg); for Cmax / half-life / AUC(0-t) / Vd/F / Tmax: human, in vivo, po; for Vd/F: read-out: Vz/F
Protocol: This example describes a first in human, Phase 1a, multi-center, open-label study to establish the maximum tolerated dose (MTD) and evaluate the safety and tolerability of oral dosing of Form A of the hemi-fumarate salt of the compound of formula (I) (Example 11) in a dose-escalating fashion. Form A of the hemi-fumarate salt was orally administered BID every day with food or within 30 minutes of completing a meal, starting at 25 mg, with doses escalating to 50, 100, 200, 400, 600, and 900 mg BID as safety allows for each 3-week treatment cycle.
Up to 36 qualified subjects at 3 to 5 US sites, who have specific tumor types of renal cell carcinoma (RCC), gastric cancer (GC), metastatic breast cancer (MBC), small cell lung cancer (SCLC), and other solid tumors (e.g., non-small cell lung cancer, colorectal cancer, carcinoma of unknown primary) with the exception of rapidly progressing neoplasms (e.g., pancreatic cancer, glioblastoma, hepatocellular carcinoma) received Form A of the hemi-fumarate salt. Every effort was made to ensure approximately 50% of all subjects enrolled were subjects with RCC and GC. The starting dose level was 25 mg twice daily (BID), escalating to 50, 100, and 200 mg BID as safety allows, following the Bayesian Optimal Interval (BOIN) design. The safety monitoring committee (SMC) evaluated the dose-limiting toxicities (DLTs) and cumulative safety and PK data at the end of each cohort. Based on the SMC recommendations after a comprehensive review of PK and safety data for 200 mg BID dose, higher dose levels were evaluated, starting with 400 mg BID. The dose escalated to 600 mg and then 900 mg following the BOIN design starting with 1 subject at each escalated dose, until the MTD was reached or the sponsor or SMC declares the dose most appropriate for clinical development. This Phase 1a will be expanded into a Phase 1b/2a study through a protocol amendment and will then assess the dose and tumor type(s) selected in Phase 1a as the most appropriate for further clinical development. Subjects were dosed until unacceptable toxicity, disease progression per immune-related Response Evaluation Criteria in Solid Tumors (iRECIST), subject withdrawal, any other administrative reasons, or after 2 years of treatment, whichever occurs first. Efficacy was assessed via Response Evaluation Criteria in Solid Tumors 1.1 (RECIST 1.1); computed tomography (CT) scans were conducted every 6 weeks. Safety, including occurrence of dose-limiting toxicities (DLTs), pharmacokinetics (PK), and biomarker parameters were also assessed.
Form A of the hemi-fumarate salt was orally administered BID with food or within 30 minutes of completing a meal, starting at 25 mg, with doses escalating to 50, 100, 200, 400, 600 and 900 mg BID as safety allowed. Up to 24 subjects were enrolled to ensure 12 subjects completed the study at the estimated MTD of Form A of the hemi-fumarate salt. Dosing occurred in 3-week cycles. Subjects spent Cycle 1/Day 1 (C1D1) in the clinic followed by an overnight stay for safety monitoring and PK sampling. Subjects were hospitalized for administration of first 3 doses: CID1 am and pm doses, and Cycle 1/Day 2 (C1D2) am dose; on Days 8, 15, and 21 the am dose was taken in the clinic after the planned PK samples. All other doses were self administered at home.
Results of Cohorts 1 to 6 the study are detailed in Tables 47-50 below.

[1] = 25 mg, 25 mg single oral dose, Cycle 1 Day 1, geometric mean, N = 3
[2] = 50 mg, 50 mg single oral dose, Cycle 1 Day 1, geometric mean, N = 3
[3] = 200 mg, 200 mg single oral dose, Cycle 1 Day 1, geometric mean, N = 5

In the case of `Cc1cc(NC(=O)[C@H](O)c2cc(F)cc(F)c2)ccc1-c1cnc(N)c(C(=O)NC(C)C)c1` [Form A of the hemi-fumarate salt, (R)-2-amino-5-(4-(2-(3,5-difluorophenyl)-2-hydroxyacetamido)-2-methylphenyl)-N-isopropylnicotinamide], the Increase in mean (single oral dose, Cycle 1 Day 1) is reported as 3.03, the Increase in mean (twice daily oral, Cycle 1 Day 21) is reported as 1.19 and the Cmax [1] is reported as 120 ng/mL. It also gave a half-life (25 mg, 25 mg single oral dose, Cycle 1 Day 1, geometric mean, N = 3, interpret with caution, terminal elimination phase not well captured, read-out: t1/2 (converted)) of 8.99 h, an AUC(0-t) (25 mg, 25 mg single oral dose, Cycle 1 Day 1, geometric mean, N = 3, read-out: AUC0-12) of 850 ng·h/mL and an AUC(0-t) (25 mg, 25 mg single oral dose, Cycle 1 Day 1, geometric mean, N = 3, read-out: AUC0-last) of 850 ng·h/mL. It also gave a Vd/F [1] of 147 L, a Tmax (25 mg, 25 mg single oral dose, Cycle 1 Day 1, median, N = 3) of 8 h and a half-life (25 mg, 25 mg twice daily oral, Cycle 1 Day 21, N = 3, interpret with caution, terminal elimination phase not well captured, read-out: t1/2 (converted)) of 16 h. For the same compound, the Vd/F (25 mg, 25 mg twice daily oral, Cycle 1 Day 21, N = 3) was 150 L, the Cmax (25 mg, 25 mg twice daily oral, Cycle 1 Day 21, geometric mean, N = 3) was 537 ng/mL and the AUC(0-t) (25 mg, 25 mg twice daily oral, Cycle 1 Day 21, geometric mean, N = 3, read-out: AUC0-last) was 4110 ng·h/mL. It also gave a half-life (25 mg, 25 mg twice daily oral, Cycle 1 Day 21, geometric mean, N = 3, read-out: t1/2, eff (converted)) of 35.8 h, a Tmax (25 mg, 25 mg twice daily oral, Cycle 1 Day 21, median, N = 3) of 2 h and a Cmax [2] of 243 ng/mL. The half-life (50 mg, 50 mg single oral dose, Cycle 1 Day 1, geometric mean, N = 3, interpret with caution, terminal elimination phase not well captured, read-out: t1/2 (converted)) was 11.1 h, the AUC(0-t) (50 mg, 50 mg single oral dose, Cycle 1 Day 1, geometric mean, N = 3, read-out: AUC0-12) was 2090 ng·h/mL and the AUC(0-t) (50 mg, 50 mg single oral dose, Cycle 1 Day 1, geometric mean, N = 3, read-out: AUC0-last) was 2090 ng·h/mL. The Vd/F [2] was 141 L, the Tmax (50 mg, 50 mg single oral dose, Cycle 1 Day 1, median, N = 3) was 4 h and the Cmax (50 mg, 50 mg twice daily oral, Cycle 1 Day 21, geometric mean, N = 3) was 978 ng/mL. It also gave an AUC(0-t) (50 mg, 50 mg twice daily oral, Cycle 1 Day 21, geometric mean, N = 3, read-out: AUC0-last) of 9070 ng·h/mL, a half-life (50 mg, 50 mg twice daily oral, Cycle 1 Day 21, geometric mean, N = 3, read-out: t1/2, eff (converted)) of 31.5 h and a Tmax (50 mg, 50 mg twice daily oral, Cycle 1 Day 21, median, N = 3) of 2 h. The Cmax (100 mg, 100 mg single oral dose, Cycle 1 Day 1, geometric mean, N = 4) was 380 ng/mL, the AUC(0-t) (100 mg, 100 mg single oral dose, Cycle 1 Day 1, geometric mean, N = 4, read-out: AUC0-12) was 2800 ng·h/mL and the AUC(0-t) (100 mg, 100 mg single oral dose, Cycle 1 Day 1, geometric mean, N = 4, read-out: AUC0-last) was 1930 ng·h/mL. For the same compound, the Tmax (100 mg, 100 mg single oral dose, Cycle 1 Day 1, median, N = 4) was 7 h, the half-life (100 mg, 100 mg twice daily oral, Cycle 1 Day 21, N = 3, interpret with caution, terminal elimination phase not well captured, read-out: t1/2 (converted)) was 37.6 h and the Vd/F (100 mg, 100 mg twice daily oral, Cycle 1 Day 21, N = 3) was 383 L. The Cmax (100 mg, 100 mg twice daily oral, Cycle 1 Day 21, geometric mean, N = 3) was 1310 ng/mL, the AUC(0-t) (100 mg, 100 mg twice daily oral, Cycle 1 Day 21, geometric mean, N = 3, read-out: AUC0-last) was 11700 ng·h/mL and the half-life (100 mg, 100 mg twice daily oral, Cycle 1 Day 21, geometric mean, N = 3, read-out: t1/2, eff (converted)) was 30.1 h. It also gave a Tmax (100 mg, 100 mg twice daily oral, Cycle 1 Day 21, median, N = 3) of 4 h, a Cmax [3] of 839 ng/mL and a half-life (200 mg, 200 mg single oral dose, Cycle 1 Day 1, geometric mean, N = 5, interpret with caution, terminal elimination phase not well captured, read-out: t1/2 (converted)) of 20.6 h. It also gave an AUC(0-t) (200 mg, 200 mg single oral dose, Cycle 1 Day 1, geometric mean, N = 5, read-out: AUC0-12) of 5800 ng·h/mL, an AUC(0-t) (200 mg, 200 mg single oral dose, Cycle 1 Day 1, geometric mean, N = 5, read-out: AUC0-last) of 5800 ng·h/mL and a Vd/F [3] of 331 L. The Tmax (200 mg, 200 mg single oral dose, Cycle 1 Day 1, median, N = 5) was 4 h, the half-life (200 mg, 200 mg twice daily oral, Cycle 1 Day 21, N = 4, interpret with caution, terminal elimination phase not well captured, read-out: t1/2 (converted)) was 7.71 h and the Vd/F (200 mg, 200 mg twice daily oral, Cycle 1 Day 21, N = 4) was 79.4 L. The Cmax (200 mg, 200 mg twice daily oral, Cycle 1 Day 21, geometric mean, N = 4) was 2990 ng/mL, the AUC(0-t) (200 mg, 200 mg twice daily oral, Cycle 1 Day 21, geometric mean, N = 4, read-out: AUC0-last) was 27200 ng·h/mL and the half-life (200 mg, 200 mg twice daily oral, Cycle 1 Day 21, geometric mean, N = 4, read-out: t1/2, eff (converted)) was 35.9 h.
